Results published in patent publication US11149028B2, “Methods for treating melanoma using small molecules” (NOVA SOUTHEASTERN UNIVERSITY, priority 2016, dated 2021).
“Also recorded” adds a separate entry of the source.

What was measured:
[1] = tested on: CHO-K1 cells; assay: CellTiter-Glo viability assay, CHO-K1 healthy control cells; format: cell-based; conditions: individual compounds
Method: (§1) Mixture libraries were solubilized in 3% DMSO/H2O and added to polypropylene 384 well plates (Greiner cat #781280). 1,250 CHO-K1, A549, or M14 cells were plated in 384-well plates in 5 μL of serum-free media (F12 for CHO-K1 and A549, DMEM for M14). Test compounds and gefitinib (pharmacological assay control) were prepared as 10-point, 1:3 serial dilutions starting at 300 then added to the cells (5 μL per well) using the Biomek NX^P. Plates were incubated for 72 h at 37° C., 5% CO2 and 95% RH. After incubation, 5 μL of CellTiter-Glo® (Promega cat #: G7570) were added to each well, and incubated for 15 min at room temperature. Luminescence was recorded using a Biotek Synergy H4 multimode microplate reader. Viability was expressed as a percentage relative to wells containing media only (0%) and wells containing cells treated with 1% DMSO only (100%). Three parameters were calculated on a per-plate basis: (a) the signal-to-background ratio (SB); (b) the coefficient for variation [CV; CV=(standard deviation/mean)×100)] for all compound test wells; and (c) the Z′-factor (18). The IC50 value of the pharmacological control (gefitinib, LC Laboratories #G-4408) was also calculated to ascertain the assay robustness. Time course viability assay was performed as described for library screening with luminescence measurements performed at 4, 24, 48, and 72 h.

[2] = tested on: caspase 3/7 in WM266-4 cells; assay: Caspase 3/7 activity assay; format: cell-based, human; conditions: 0 and 4 h
Method: (§2) WM266-4 and M14 cells were plated in 384-well plates in 5 μL of complete media (EMEM and RPMI-1640, respectively). 5 μL of 200 μM 2155-14 and 2155-18 were added to the cells. Plates were incubated at 37° C., 5% CO2 and 95% relative humidity for various lengths of time. After incubation, 5 μL of caspase 3/7, caspase 8, and caspase 9 Glo® reagent (Promega cat #: G7570) were added to each well, and incubated for 15 min at room temperature. Luminescence was recorded using a Biotek Synergy H4 multimode microplate reader.

[3] = molecular target: HDAC1 (Homo sapiens, UniProt Q13547); assay: HDAC inhibition testing; format: biochemical; conditions: up to 100 μM
[4] = molecular target: HDAC2 (Homo sapiens, UniProt Q92769); assay: HDAC inhibition testing; format: biochemical; conditions: up to 100 μM
[5] = tested on: WM266-4 cells; assay: CellTiter-Glo cell viability assay, WM266-4 (including rescue assays); format: cell-based, human; conditions: for viability of WM266-4 cells: 24 h after addition
Method: Cells were plated in 384-well plates in 8 μL of media. Test compounds and dabrafenib (pharmacological assay control) were prepared as 10-point, 1:3 serial dilutions starting at 300 μM, then added to the cells (4 μL per well) using the Biomek Plates were incubated for 72 h at 37° C., 5% CO2 and 95% relative humidity. After incubation, 4 μL of CellTiter-Glo® (Promega cat #: G7570) were added to each well, and incubated for 15 min at room temperature. Luminescence was recorded using a Biotek Synergy H4 multimode microplate reader. Viability was expressed as a percentage relative to wells containing media only (0%) and wells containing cells treated with DMSO only (100%). Three parameters were calculated on a per-plate basis: (a) the signal-to-background ratio (SB); (b) the coefficient for variation [CV; CV=(standard deviation/mean)×100)] for all compound test wells; and (c) the Z′-factor (18). The IC50 value of the pharmacological control (dabrafenib, LC Laboratories #G-4408) was also calculated to ascertain the assay robustness. In case of viability rescue assays, cells were pre-treated with caspase, calpain, and autophagy inhibitors for 1-3 h before addition of test compounds. Time course viability assay was done with luminescence measurements performed at 4, 24, 48, and 72 h.

[6] = tested on: SKMEL-28 melanoma cell line; assay: Hexosaminidase viability assay, SKMEL-28; format: cell-based; conditions: Homo sapiens, SK-MEL-28; for IC50: V600EBRAF mutation
Method: (§3) Hexosaminidase assay was used to study the effects of 2155-14 and 2155-18 on cell viability or cell proliferation of both B16/F-10 and SKMEL-28 cells
(§4) (Landegren, U. Measurement of cell numbers by means of the endogenous enzyme hexosaminidase. Applications to detection of lymphokines and cell surface antigens. J Immunol Methods 1984, 67, 379-388). In brief, cells were plated in 96 well plates, grown overnight and treated the next day with increasing concentrations of compounds (0-50 μM) for 48 h. After 48 h of treatment, media was discarded and cells were washed with PBS to remove residual media from wells. Hexosaminidase substrate (75 μL) (Sigma Aldrich; cat #N9376) was added to each well, incubated at 37° C. for 30 min followed by addition of 112.5 μL of developer into each well. Final absorbance was measured at λ=405 nm. Cell growth was calculated as percent viability=[([…])×100], where A and B were the absorbance of treated and control cells, respectively.

[7] = tested on: B16/F10 murine metastatic melanoma; assay: Hexosaminidase viability assay, B16/F10; format: cell-based; conditions: Mus musculus; for IC50: p53 mutation
Method: as §3, §4

[8] = tested on: caspase 8 in WM266-4 cells; assay: Caspase 8 activity assay; format: cell-based, human; conditions: 0 and 4 h
Method: as §2

[9] = tested on: WM266-4 cells; assay: Cell staining for autophagy (autophagosome dye); format: cell-based, human; conditions: for autophagy staining: 100 μM; for autophagy staining / morphology of unstained cells: 4 and 24 h; for morphology of unstained cells: bright field
Method: WM266-4 cells were seeded at 10,000 cells/well in 0.1 mL of E-MEM medium supplemented with 10% FBS and 1% penicillin/streptomycin in 96 well plates (Greiner Bio-One CellStar cat #655180) and allowed to adhere overnight. After overnight incubation 100 μM 2155-14, 2155-18, 50 nM hnRNPH2 siRNA or 25 μM 2476-67.2 were added and incubated for various length of time. Cells were rinsed with warm PBS and stained with CYTO-ID® 1.0 Autophagy reagent (Enzo ENZ-51031-0050) and counterstained with DAPI. Cells were imaged using Cytation 5 imager (Biotek Inc, Winooski, Vt.) using GFP and DAPI filter sets. For % autophagic cells calculations cell counts were conducted using DAPI-stained nuclei and Object Sum Area value was obtained from at least 1,000 cells/well using DAPI channels. To obtain number of cells undergoing autophagy the cell count was conducted using GFP channel. Both GFP and DAPI cell counts were conducted using optimized algorithm in automatic mode. 8 replicate wells were used. % autophagic cells was calculated using Equation 1:% autophagic cells=100%*(number of cells, GFP channenumber of cells, DAPI channel)
To calculate staining intensity, the Object Sum Area value from GFP channel was obtained and divided by number of cells using DAPI channel. Both GFP and DAPI cell counts were conducted using optimized algorithm in automatic mode. 3 replicate wells were used.

[10] = tested on: A549 non-small cell lung cancer cell line; assay: CellTiter-Glo viability assay, A549 cells; format: cell-based; conditions: individual compounds
Method: as §1

Sequence of HDAC2 (Q92769 whole entry): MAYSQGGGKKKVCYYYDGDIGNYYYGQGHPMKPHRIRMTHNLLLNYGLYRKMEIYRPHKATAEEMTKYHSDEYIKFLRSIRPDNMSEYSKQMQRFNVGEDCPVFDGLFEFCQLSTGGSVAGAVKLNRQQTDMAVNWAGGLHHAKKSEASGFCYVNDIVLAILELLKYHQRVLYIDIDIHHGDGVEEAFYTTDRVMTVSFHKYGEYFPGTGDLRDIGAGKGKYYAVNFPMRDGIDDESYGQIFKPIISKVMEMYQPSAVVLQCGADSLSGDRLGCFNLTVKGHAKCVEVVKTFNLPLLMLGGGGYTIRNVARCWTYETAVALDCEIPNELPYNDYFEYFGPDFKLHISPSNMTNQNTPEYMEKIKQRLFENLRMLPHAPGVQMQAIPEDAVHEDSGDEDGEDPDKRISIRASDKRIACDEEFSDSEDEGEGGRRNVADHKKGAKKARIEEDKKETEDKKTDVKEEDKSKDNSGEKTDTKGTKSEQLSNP
Sequence of HDAC1 (Q13547 whole entry, species assumed): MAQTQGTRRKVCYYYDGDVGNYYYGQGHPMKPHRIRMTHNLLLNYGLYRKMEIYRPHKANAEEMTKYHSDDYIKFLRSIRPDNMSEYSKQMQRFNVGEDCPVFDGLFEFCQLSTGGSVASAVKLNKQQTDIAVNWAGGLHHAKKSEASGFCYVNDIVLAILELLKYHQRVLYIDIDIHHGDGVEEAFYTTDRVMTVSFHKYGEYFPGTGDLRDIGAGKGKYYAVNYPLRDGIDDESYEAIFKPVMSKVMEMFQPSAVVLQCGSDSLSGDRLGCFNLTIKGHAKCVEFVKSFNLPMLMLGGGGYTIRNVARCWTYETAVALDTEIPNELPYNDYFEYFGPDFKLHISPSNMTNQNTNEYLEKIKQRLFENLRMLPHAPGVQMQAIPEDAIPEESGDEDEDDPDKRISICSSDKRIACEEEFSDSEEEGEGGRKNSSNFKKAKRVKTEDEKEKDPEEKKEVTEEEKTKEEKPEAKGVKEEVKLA

Row | Structure (SMILES) | caspase 3/7 activity vs untreated control [2] | HDAC1 inhibition [3] | HDAC2 inhibition [4] | viability of WM266-4 cells [5] | IC50 [6] [nM] | IC50 [7] [nM] | caspase 8 signal vs untreated control [8] | autophagy staining [9] | morphology of unstained cells [9] | further results
1 | O=C1NC[C@H](Cc2ccccc2)N(C[C@@H]2CCCN2C[C@@H](CC2CCCCC2)N2C[C@H](Cc3ccc(O)cc3)N(CCc3ccccc3)C(=O)C2=O)C1=O [Compound 2155-14, (S)-1((R)-1((S)-2-(((S)-6-benzyl-2,3-dioxopiperazin-1-yl)methyl)pyrrolidin-1-yl)-3-cyclohexylpropan-2-yl)-5-(4-hydroxybenzyl)-4-phenethylpiperazine-2,3-dione] | not statistically different from untreated control | lack of HDAC inhibition | lack of HDAC inhibition | impaired | 563 ± 40 | 2700 ± 200 | significantly different from untreated control cells | stained positive for autophagy as early as 4 h after compound addition; also recorded: At 24 h the intensity of autophagy staining increased; also recorded: stain positive for autophagy at 4 h | exhibited traits of apoptosis; also recorded: extensive cell death | IC50 ([1]; Cricetulus griseus, CHO-K1): > 100000 nM; inhibition of WM266-4 viability ([5]; 100 μM, 72 h): completely inhibited viability; viability after pre-incubation with caspase inhibitors ([5]; 24 h, 10 μM Z-IETD-FMK and Z-VAD-FMK): almost completely restored; viability of WM266-4 cells with caspase inhibitor pre-treatment ([5]; 48 h of exposure): ~25%; IC50 ([5]; 72 h): 4000 ± 500 nM; IC50 ([5]; 72 h, listed as 2529-1): 1500 ± 200 nM; cytotoxicity at 10 µM ([6]; starting at 10 μM, read-out: inhibition of SKMEL-28 viability): ~100%; cytotoxicity at 10 µM ([7]; starting at 10 μM, read-out: inhibition of B16/F10 viability): ~100%; cells undergoing autophagy ([9]; quantitation of representative image, FIG. 18D): 57%; IC50 ([10]; Homo sapiens, A549): > 100000 nM
2 | O=C1NC[C@H](Cc2ccccc2)N(C[C@@H]2CCCN2C[C@H](Cc2ccccc2)N2C[C@H](Cc3ccc(O)cc3)N(CCC34CC5CC(CC(C5)C3)C4)C(=O)C2=O)C1=O [Compound 2155-18, (S)-4-(2-(adamantan-1yl)ethyl)-1-((S)-1-((S)-2-(((S)-6-benzyl-2,3-dioxopiperazin-1-yl)methyl)pyrrolidin-1-yl)-3-phenylpropan-2-yl)-5-(4-hydroxybenzyl)piperazine-2,3-dione] | not statistically different from untreated control | lack of HDAC inhibition | lack of HDAC inhibition | impaired | 890 ± 70 | 1150 | significantly different from untreated control cells | did not stain positive for autophagy | exhibited traits of apoptosis; also recorded: less pronounced than 2155-14 | selectivity over CHO-K1 healthy control cells [1]: maintaining selectivity for CHO-K1 cells; activity towards A549 cells [10]: improved activity
